Measured values: patent US8889704B2 (Array BioPharma Inc., priority 2011, dated 2014)
Where a name gives a salt, the structure may show the parent alone.

Key:
Format in all cases: biochemical
[1] = target: PIM-1 (Homo sapiens, UniProt P11309); test: Enzyme PIM-1 Assay ([33P]ATP incorporation into PIM2tide, filter plate); details: averaged IC50; 35 μM ATP, 7.5 μM PIM2tide, 0.25 nM PIM-1, 60 min at 22° C.
Summary of the method: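 Radiometric assay: 0.25 nM PIM-1 phosphorylates 7.5 μM PIM2tide with 35 μM [γ-33P]ATP in 20 mM MOPS pH 7.4, 10 mM MgCl2, 1 mM DTT, 0.005% Tween-20, 60 min at 22 °C. Product captured on P81 filters, scintillation counted; 10-point 3-fold curve from 10 μM top, 2% DMSO, IC50 by 4-parameter logistic fit of POC.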

[2] = target: T1, GST-tagged recombinant full-length human Pim-2 (Homo sapiens, UniProt Q9P1W9); test: PIM-2 Assay (as Example A); details: averaged IC50; 4 μM ATP, 1.0 μM PIM2tide, 1.5 nM Pim-2
T1 construct: GST-tagged recombinant full-length human Pim-2; GST
Summary of the method: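 Radiometric filter-binding assay: GST-tagged full-length human Pim-2 (1.5 nM) phosphorylates 1.0 μM PIM2tide with 4 μM [γ-33P]ATP for 60 min at 22 °C in pH 7.4 MOPS buffer, 2% DMSO. 10-point 3-fold dilutions from 10 μM top dose; IC50 from 4-parameter fit of percent of control.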

[3] = target: recombinant rat PIM-3 (Rattus norvegicus, UniProt O70444); test: PIM-3 Assay (as Example A); details: averaged IC50; 30 μM ATP, 3.75 μM PIM2tide, 0.5 nM PIM-3
Summary of the method: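 Recombinant rat PIM-3 (0.5 nM) with 3.75 μM PIM2tide and 30 μM [γ-33P]ATP in MOPS pH 7.4 buffer, 60 min at 22 °C; labelled peptide captured on phosphocellulose filters and counted by scintillation. 10-point curve (top dose 10 μM, 2% DMSO); IC50 from 4-parameter fit of percent of control.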

T1 sequence (Q9P1W9 whole entry): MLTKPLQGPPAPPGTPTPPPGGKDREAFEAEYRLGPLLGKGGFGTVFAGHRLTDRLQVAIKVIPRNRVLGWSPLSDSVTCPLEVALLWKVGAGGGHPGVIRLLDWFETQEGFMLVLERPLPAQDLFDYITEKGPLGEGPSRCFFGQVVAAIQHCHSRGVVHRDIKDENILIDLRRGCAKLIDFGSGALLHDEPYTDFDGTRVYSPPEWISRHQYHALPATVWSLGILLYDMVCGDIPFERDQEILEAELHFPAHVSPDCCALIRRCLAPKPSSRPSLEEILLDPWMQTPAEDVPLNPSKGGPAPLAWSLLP
Chain of PIM-1 (P11309 whole entry, species assumed): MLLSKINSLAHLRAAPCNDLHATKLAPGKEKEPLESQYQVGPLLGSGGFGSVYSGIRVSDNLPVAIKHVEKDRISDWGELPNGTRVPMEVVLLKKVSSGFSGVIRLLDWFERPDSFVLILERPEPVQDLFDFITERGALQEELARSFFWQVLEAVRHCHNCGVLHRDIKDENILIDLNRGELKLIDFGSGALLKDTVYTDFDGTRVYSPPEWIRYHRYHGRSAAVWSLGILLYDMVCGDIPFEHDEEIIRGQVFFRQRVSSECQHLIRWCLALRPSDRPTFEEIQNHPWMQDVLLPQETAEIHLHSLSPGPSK

Row | Structure (SMILES) | IC50 [1] [nM] | IC50 [2] [nM] | IC50 [3] [nM]
1 | N[C@H]1CCN([C@H](c2ccc3nnc(-c4ccc5cc(F)c(C6(CO)CC6)cc5n4)n3c2)C(F)(F)F)C1 [Example 164, (1-(2-(6-((R)-1-((S)-3-aminopyrrolidin-1-yl)-2,2,2-trifluoroethyl)-[1,2,4]triazolo[4,3-a]pyridin-3-yl)-6-fluoroquinolin-7-yl)cyclopropyl)methanol dihydrochloride] | 2.63 | > 100 | 7.3
2 | COCC1(c2cc3nc(-c4nnc5ccc([C@@H](N6CC[C@H](N)C6)C(F)(F)F)cn45)ccc3cc2F)CC1 [Example 165, (S)-1-((R)-2,2,2-trifluoro-1-(3-(6-fluoro-7-(1-(methoxymethyl)cyclopropyl)quinolin-2-yl)-[1,2,4]triazolo[4,3-a]pyridin-6-yl)ethyl)pyrrolidin-3-amine dihydrochloride] | 3.83 | > 100 | 6.6
3 | Cn1cc(-c2ccc3ccc(-c4nnc5ccc([C@@H](N6CC[C@H](N)C6)C(F)(F)F)cn45)nc3c2F)cn1 [Example 171, (S)-1-((R)-2,2,2-trifluoro-1-(3-(8-fluoro-7-(1-methyl-1H-pyrazol-4-yl)quinolin-2-yl)-[1,2,4]triazolo[4,3-a]pyridin-6-yl)ethyl)pyrrolidin-3-amine tri-hydrochloride] | 0.29 | > 100 | 0.5
4 | Cn1cc(-c2cc3nc(-c4nnc5ccc([C@@H](N6CC[C@H](N)C6)C(F)(F)F)cn45)ccc3cc2F)cn1 [Example 173, (S)-1-((R)-2,2,2-trifluoro-1-(3-(6-fluoro-7-(1-methyl-1H-pyrazol-4-yl)quinolin-2-yl)-[1,2,4]triazolo[4,3-a]pyridin-6-yl)ethyl)pyrrolidin-3-amine tri-hydrochloride] | 0.13 | > 100 | 0.4

Other lines, results leading:

Row | IC50 [1] [nM] | IC50 [2] [nM] | IC50 [3] [nM] | Structure (SMILES)
5 | 1.33 | > 100 | 8.9 | COCCc1ccc2ccc(-c3nnc4ccc([C@@H](N5CC[C@H](N)C5)C(F)(F)F)cn34)nc2c1F [Example 166, (S)-1-((R)-2,2,2-trifluoro-1-(3-(8-fluoro-7-(2-methoxyethyl)quinolin-2-yl)-[1,2,4]triazolo[4,3-a]pyridin-6-yl)ethyl)pyrrolidin-3-amine dihydrochloride]
6 | 2.04 | > 100 | 12 | COc1ccc2ccc(-c3nnc4ccc([C@@H](N5CC[C@H](N)C5)C(F)(F)F)cn34)nc2c1F [Example 167, (S)-1-((R)-2,2,2-trifluoro-1-(3-(8-fluoro-7-methoxyquinolin-2-yl)-[1,2,4]triazolo[4,3-a]pyridin-6-yl)ethyl)pyrrolidin-3-amine dihydrochloride]
7 | 1.75 | > 100 | 15 | N[C@H]1CCN([C@H](c2ccc3nnc(-c4ccc5cccc(F)c5n4)n3c2)C(F)(F)F)C1 [Example 168, (S)-1-((R)-2,2,2-trifluoro-1-(3-(8-fluoroquinolin-2-yl)-[1,2,4]triazolo[4,3-a]pyridin-6-yl)ethyl)pyrrolidin-3-amine dihydrochloride]
8 | 2.22 | > 100 | 10 | N[C@H]1CCN([C@H](c2ccc3nnc(-c4ccc5ccc(C6CC6)c(F)c5n4)n3c2)C(F)(F)F)C1 [Example 172, (S)-1-((R)-1-(3-(7-cyclopropyl-8-fluoroquinolin-2-yl)-[1,2,4]triazolo[4,3-a]pyridin-6-yl)-2,2,2-trifluoroethyl)pyrrolidin-3-amine dihydrochloride]
9 | 1.1 | > 100 | 0.8 | COCCOc1ccc2ccc(-c3nnc4ccc([C@@H](N5CC[C@H](N)C5)C(F)(F)F)cn34)nc2c1Cl [Example 174, (S)-1-((R)-1-(3-(8-chloro-7-(2-methoxyethoxy)quinolin-2-yl)-[1,2,4]triazolo[4,3-a]pyridin-6-yl)-2,2,2-trifluoroethyl)pyrrolidin-3-amine hydrochloride]
